Laboratory results: ChEMBL document CHEMBL3865829 (Eur J Med Chem, 2016)

Legend:
[1] = Antitumor activity against human A549 cells xenografted in BALB/c nude mouse assessed as tumor volume at 10 mg/kg, ig administered via oral gavage once daily for 14 consecutive days measured on day 8 (reference value: 840.07 +/- 205.19 mm3); assay type: functional
[2] = Cytotoxicity against human A549 cells after 72 hrs by MTT assay; assay type: functional, cell-based; settings: A549, 72 h
Mus musculus [3] = assay: Toxicity in nude BALB/c mouse xenografted with human A549 cells assessed as body weight at 10 mg/kg, ig administered via oral gavage once daily for 14 consecutive days measured on day 4 (reference value: 24.77 +/- 0.93 g); assay type: organism-based; settings: in vivo
[4] = Antitumor activity against human A549 cells xenografted in BALB/c nude mouse assessed as tumor volume at 10 mg/kg, ig administered via oral gavage once daily for 14 consecutive days measured on day 4 (reference value: 419.55 +/- 104.72 mm3); assay type: functional
[5] = Antitumor activity against human Bel7404 cells xenografted in BALB/c nude mouse assessed as tumor growth inhibition at 10 mg/kg, ig administered via oral gavage once daily for 14 consecutive days measured on day 29; assay type: functional; settings: BEL-7404, po, 696 h, read-out: TGI
Mus musculus [6] = assay: Toxicity in nude BALB/c mouse xenografted with human A549 cells assessed as body weight at 10 mg/kg, ig administered via oral gavage once daily for 14 consecutive days measured on day 1 (reference value: 24.38 +/- 0.76 g); assay type: organism-based; settings: in vivo
[7] = Antitumor activity against human Bel7404 cells xenografted in BALB/c nude mouse assessed as tumor volume at 10 mg/kg, ig administered via oral gavage once daily for 14 consecutive days measured on day 10 (reference value: 425.92 +/- 102.32 mm3); assay type: functional, BEL-7404
[8] = Antitumor activity against human A549 cells xenografted in BALB/c nude mouse assessed as tumor volume at 10 mg/kg, ig administered via oral gavage once daily for 14 consecutive days measured on day 18 (reference value: 3045.91 +/- 854.27 mm3); assay type: functional
[9] = AUC (0 to infinity) in Sprague-Dawley rat at 2 mg/kg, iv by LCMS analysis; assay type: ADME, organism-based; parameters: dose 2 mg/kg, time infinity, route intravenous; settings: in vivo
[10] = Antitumor activity against human A549 cells xenografted in BALB/c nude mouse assessed as tumor volume at 10 mg/kg, ig administered via oral gavage once daily for 14 consecutive days measured on day 11 (reference value: 1327.66 +/- 404.92 mm3); assay type: functional
[11] = Ratio of Cmax in Sprague-Dawley rat to IC50 for human A549 cells
[12] = Cmax in Sprague-Dawley rat at 20 mg/kg administered via oral gavage as single dose by LCMS analysis; assay type: ADME, organism-based; parameters: dose 20 mg/kg, route oral; settings: in vivo
A549 [13] = assay: Inhibition of PI3K in human A549 cells assessed as reduction in AKT phosphorylation at threonine308 residues after 30 mins by Western blot analysis; assay type: cell-based
[14] = Antitumor activity against human A549 cells xenografted in BALB/c nude mouse assessed as tumor growth inhibition at 10 mg/kg, ig administered via oral gavage once daily for 14 consecutive days measured on day 30 relative to control; assay type: functional; settings: 720 h, read-out: TGI
Mus musculus [15] = assay: Toxicity in nude BALB/c mouse xenografted with human A549 cells assessed as body weight at 10 mg/kg, ig administered via oral gavage once daily for 14 consecutive days measured on day 15 (reference value: 27.12 +/- 1.43 g); assay type: organism-based; settings: in vivo
[16] = Time at which maximum plasma concentration stays above in vitro IC50 for human A549 cells in Sprague-Dawley rat at 20 mg/kg, po administered as single dose; assay type: ADME, organism-based; settings: in vivo
Mus musculus [17] = assay: Toxicity in nude BALB/c mouse xenografted with human A549 cells assessed as body weight at 10 mg/kg, ig administered via oral gavage once daily for 14 consecutive days measured on day 8 (reference value: 25.66 +/- 1.04 g); assay type: organism-based; settings: in vivo
[18] = Antitumor activity against human A549 cells xenografted in BALB/c nude mouse assessed as tumor volume at 10 mg/kg, ig administered via oral gavage once daily for 14 consecutive days measured on day 15 (reference value: 2071.51 +/- 682.84 mm3); assay type: functional
[19] = Antitumor activity against human Bel7404 cells xenografted in BALB/c nude mouse assessed as tumor volume at 10 mg/kg, ig administered via oral gavage once daily for 14 consecutive days measured on day 17 (reference value: 747.40 +/- 169.75 mm3); assay type: functional, BEL-7404
[20] = Antitumor activity against human Bel7404 cells xenografted in BALB/c nude mouse assessed as tumor volume at 10 mg/kg, ig administered via oral gavage once daily for 14 consecutive days measured on day 3 (reference value: 176.17 +/- 57.63 mm3); assay type: functional, BEL-7404
[21] = Antitumor activity against human Bel7404 cells xenografted in BALB/c nude mouse assessed as tumor volume at 10 mg/kg, ig administered via oral gavage once daily for 14 consecutive days measured on day 1 (reference value: 101.62 +/- 26.48 mm3); assay type: functional, BEL-7404
cells = settings: Homo sapiens, HCT-116, 72 h
Mus musculus [22] = assay: Toxicity in nude BALB/c mouse xenografted with human A549 cells assessed as body weight at 10 mg/kg, ig administered via oral gavage once daily for 14 consecutive days measured on day 18 (reference value: 27.75 +/- 1.41 g); assay type: organism-based; settings: in vivo
[23] = Cmax in Sprague-Dawley rat at 2 mg/kg, iv by LCMS analysis; assay type: ADME, organism-based; parameters: dose 2 mg/kg, route intravenous; settings: in vivo
[24] = Antitumor activity against human Bel7404 cells xenografted in BALB/c nude mouse assessed as tumor volume at 10 mg/kg, ig administered via oral gavage once daily for 14 consecutive days measured on day 7 (reference value: 284.68 +/- 74.36 mm3); assay type: functional, BEL-7404
[25] = Half life in rat microsomes; assay type: ADME, Microsome
[26] = AUC (0 to infinity) in Sprague-Dawley rat at 20 mg/kg administered via oral gavage as single dose by LCMS analysis; assay type: ADME, organism-based; parameters: dose 20 mg/kg, route oral, time infinity; settings: in vivo
[27] = Oral bioavailability in Sprague-Dawley rat at 20 mg/kg administered via gavage as single dose by LCMS analysis; assay type: ADME, organism-based; settings: in vivo
[28] = Antitumor activity against human Bel7404 cells xenografted in BALB/c nude mouse assessed as tumor volume at 10 mg/kg, ig administered via oral gavage once daily for 14 consecutive days measured on day 14 (reference value: 589.54 +/- 162.22 mm3); assay type: functional, BEL-7404
Mus musculus [29] = assay: Toxicity in nude BALB/c mouse xenografted with human A549 cells assessed as body weight at 10 mg/kg, ig administered via oral gavage once daily for 14 consecutive days measured on day 11 (reference value: 26.11 +/- 1.06 g); assay type: organism-based; settings: in vivo
[30] = Half life in Sprague-Dawley rat at 20 mg/kg administered via oral gavage as single dose by LCMS analysis; assay type: ADME, organism-based; settings: in vivo
A549 [31] = assay: Inhibition of mTORC2 in human A549 cells assessed as reduction in AKT phosphorylation at serine473 residues after 30 mins by Western blot analysis; assay type: cell-based
[32] = Antitumor activity against human A549 cells xenografted in BALB/c nude mouse assessed as tumor volume at 10 mg/kg, ig administered via oral gavage once daily for 14 consecutive days measured on day 1 (reference value: 156.87 +/- 22.32 mm3); assay type: functional
[33] = Potency index, ratio of paclitaxel GI50 to compound GI50 against human NCI60 cells; assay type: functional
A549 [34] = assay: Antitumor activity against human A549 cells xenografted in BALB/c nude mouse assessed as tumor growth inhibition administered ig via oral gavage once daily for 14 consecutive days measured on day 30; assay type: functional, cell-based
Mus musculus [35] = assay: Toxicity in nude BALB/c mouse xenografted with human A549 cells assessed as mortality at 10 mg/kg, ig administered via oral gavage once daily for 14 consecutive days measured on day 30; assay type: organism-based; settings: in vivo
[36] = Potency index, ratio of camptothecin GI50 to compound GI50 against human NCI60 cells; assay type: functional

COc1ncc(-c2ccc3nccc(-c4ccc(CN(C)C)cc4)c3c2)cc1NS(=O)(=O)c1ccc(F)cc1F
Activity [1]: 330.06 mm3
IC50 [2]: 4.4 nM
Activity (Mus musculus [3]): 24.17 g
Activity [4]: 224.6 mm3
inhibition in vivo at 10 mg/kg [5]: 70.6%
Activity (Mus musculus [6]): 25.13 g
Activity [7]: 152.31 mm3
Activity [8]: 748.11 mm3
AUC(0-inf) [9]: 3740 ng·h/mL
Activity [10]: 432.38 mm3
Ratio [11]: >2800
Cmax [12]: 7120 ng/mL
inhibition (A549 [13]): Dose-dependent effect
inhibition in vivo at 10 mg/kg [14]: 73.5%
Activity (Mus musculus [15]): 23.42 g
Time [16]: 0.5 h
Activity (Mus musculus [17]): 24.23 g
Activity [18]: 536.2 mm3
Activity [19]: 220.21 mm3
Activity [20]: 123.3 mm3
Activity [21]: 90.39 mm3
IC50 (cells): 3 nM
Activity (Mus musculus [22]): 23.92 g
Cmax [23]: 1000 ng/mL
Activity [24]: 135.38 mm3
half-life [25]: 0.767 h
AUC(0-inf) [26]: 35600 ng·h/mL
bioavailability [27]: 95%
Activity [28]: 187.5 mm3
Activity (Mus musculus [29]): 23.77 g
half-life [30]: 4.41 h
inhibition (A549 [31]): Dose-dependent effect
Activity [32]: 149.23 mm3
RatioGI50 [33]: 2
TGI (A549 [34]): Dose-dependent effect
Activity (Mus musculus [35]): Non-Toxic
RatioGI50 [36]: 2
